Measurements published in US6403647B1, “Pulsed administration of compositions for the treatment of blood disorders” (priority 1996, dated 2002).

Experiments:
[1] = Continuous 24 hour per day infusions in sickle cell disease and beta thalassemia patients; type: in vivo, human
Experimental: Continuous 24 hour per day infusions of was administered in another study to 10 patients with sickle cell disease and beta thalassemia and produced rises in fetal globin in a lower proportion of patients, 40%. Many of these responses were not sustained.
Therefore, the same infusion rate given for 24 hours/day results in a lower response rate than does 8-16 hour/day treatment at the same infusion rate. A lower proportions of patients respond hematologically with continuous 24 hours therapy (1/10 patients) than respond to intermittent pulse therapy 8/10 patients. Hematologic responses are higher with pulse therapy (2-5) gram/dl above baseline levels compared to no responses in patients treated with 24 hour therapy.

[2] = Half-life; details: in vivo
[3] = DNA fragmentation assays (cell viability); type: cell-based
Description: Normal cell viability, the viability of an untransformed or uninfected cell, can be determined from analyzing the effects of the composition on one or more biological processes of the cell. Detrimental interference with one or more of these cellular processes becomes significant when the process becomes abnormal. Examples of quantitatable and qualifiable biological processes include the processes of cell division, protein synthesis, nucleic acid (DNA or RNA) synthesis, nucleic acid (principally DNA) fragmentation and apoptosis. Others processes include specific enzyme activities, the activities of the cellular transportation systems such as the transportation of amino acids by system A (neutral), system B (acidic) or system C (basic), and the expression of a cell surface protein. […] Abnormal cell division, for example, can be mitosis which occurs too rapidly, as in a malignancy, or unstably, resulting in programmed cell death or apoptosis, detected by increased DNA degradation. The determination of abnormal cell viability can be made on comparison with untreated control cells. Compositions preferably increase normal cell viability. Increased cell viability can be determined by those of ordinary skill in the art using, for example, DNA fragmentation analysis. […] Determinations of increased or decreased viability can also be concluded from an analysis of the results of multiple different assays. Where multiple tests provide conflicting results, accurate conclusions can still be drawn by those of ordinary skill based upon the cell type, the correctness or correlation of the tests with actual conditions and the type of composition.
Patients with blood disorders are typically quite infirm with, for example, iron damaged organs and systems. Most treatments further tax the patient's already frail health in an effort to combat the disorder.

[4] = system: system A transport of amino acids; experiment: Uptake of 3H-methyl-aminoisobutyric acid (MeAIB) into erythroblasts; type: cell-based
Experimental: Erythroblasts were tested for alterations in uptake of radio-labelled amino acid (^3H-methyl-aminoisobutyric acid; MeAIB) in the presence of AB (arginine butyrate), AMHCA (α-methylhydrocinnamic acid), PAA (phenoxyacetic acid), and IBT (isobutyramide), each at 2.0 mM.

[5] = system: Bfu-e; experiment: Erythroid colony (Bfu-e) proliferation with maximal growth factors, normal subject; type: cell-based, human; details: 0.1 mM
Description: Erythroid cells were obtained, as described in Example 1, from a normal subject and cultured on semi-solid medium in the presence of a maximal amount of erythroid growth factors including IL-6, GM-CSF, SCF and EPO. Erythroid proliferation in the presence of these factors is expected to be maximal and, therefore, any increases observed would be significant.

[6] = Total hemoglobin in phlebotomized anemic baboons, continuous versus pulse therapy; type: in vivo, baboon; details: continuous, 700 mg/kg/day for 5 days; phlebotomized baboon; from 6.7
Experimental: Therapy was administered to anemic baboons who were being phlebotomized 5-10 ml/kg of blood per day on a continuous basis. EPO was administered daily at 300 U/kg/dose. Arginine butyrate was administered daily at 700 mg/kg/day for 5 days and phenoxyacetic acid at 500 mg/kg/day daily over 8 hours and at 1000 mg/kg/day for 24 hours/day daily for five days each. […] With continuous arginine butyrate treatment, hemoglobin remained essentially stable at 6.7 to 6.9 gram/dl. With continuous treatment with phenoxyacetic acid, hemoglobin levels remained stable at 7.0 gram/dl to 6.9 gram/dl during 8 hour therapy and declined from 6.8 to 4.5 when the drug was given for 24 hours per day for 5 days.

Substance: arginine butyrate
- proportion of patients with rises in fetal globin ([1]; continuous 24 hour per day infusions, 10 patients): 40%
- patients responding hematologically ([1]; continuous 24 hours therapy): 1/10
- half-life [2]: 15 min
- cell viability in DNA fragmentation assays [3]: decrease cell viability
- amino acid (MeAIB) uptake / transport ([4]; 2.0 mM, relative to untreated fetal liver erythroid cells): inhibited amino acid uptake
- inhibition of MeAIB uptake ([4]; after 60 and 120 minutes): most significant
- Bfu-e colonies, % of control [5]: 16 % of control
- total hemoglobin after treatment [6]: 6.9 gram/dl
